The text below walks through data of patent US6423717B1, “Sulphonamide derivatives, process for their preparation, and their use as medicaments” (SmithKline Beecham p.l.c., priority 1996, dated 2002).

SMILES strings stand for the structures. pKi: −log10 of the molar value.

T1 sequence (P50406 whole entry): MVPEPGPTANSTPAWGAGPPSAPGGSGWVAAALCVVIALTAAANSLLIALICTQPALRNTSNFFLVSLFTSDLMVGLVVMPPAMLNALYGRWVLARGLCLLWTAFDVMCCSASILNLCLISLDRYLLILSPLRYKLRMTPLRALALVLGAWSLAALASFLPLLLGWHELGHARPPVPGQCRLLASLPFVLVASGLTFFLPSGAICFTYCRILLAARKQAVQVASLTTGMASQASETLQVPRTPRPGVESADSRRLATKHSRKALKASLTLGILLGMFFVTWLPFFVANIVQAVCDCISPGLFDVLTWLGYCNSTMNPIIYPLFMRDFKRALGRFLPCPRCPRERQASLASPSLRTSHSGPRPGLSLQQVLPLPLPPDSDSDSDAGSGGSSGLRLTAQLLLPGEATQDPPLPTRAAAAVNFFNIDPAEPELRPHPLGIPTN

This test addresses T1, human cloned 5-HT6 receptors (Homo sapiens, UniProt P50406).
T1 construct: host or cells: HeLa cells expressing 5-HT6 (HeLa-5HT6), washed membranes
The test is described as follows: 5-HT6 receptor binding assay, [3H]-LSD displacement on washed membranes of HeLa-5HT6 cells. Conditions: radio-ligand [3H]-LSD 2.0 nM, HeLa-5HT6 cell membranes, 37° C., Ki by Cheng and Prusoff. On the procedure: Method for assay of 5-HT6 antagonistic activity:
The test compounds were dissolved in polyethylene glycol:dimethyl sulphoxide (1:1) at 1 or 10 mM and diluted to 0.1 mM using 5 mM tris buffer (pH 7.7 @25° C.). Dissolution was assisted by addition of 0.02 ml 5M HCl plus heating to 40° C. and sonication for 10 minutes. […] The incubation buffer was 50 mM Trizma (Sigma, UK) pH7.7 @25° C., 4 mM MgCl2.
After incubation at 37° C., the mixtures were filtered using a Packard Filtermate in Packard TopCount format. Filters were washed with 4×1 ml aliquots of ice-cold incubation buffer. Filters were dried and impregnated with 0.04 ml of Microscint 20 (Packard). IC50 values were estimated from the counts per minute using a four parameter logistic curve fit within EXCEL (2). Ki values were calculated using the method of Cheng and Prusoff(3). pIC50 and pKi are the negative log10 of the molar IC50 and Ki respectively.
For orientation: pKi means the Ki on a negative log10 scale, so that one unit is a factor of ten. `COc1ccc(NS(=O)(=O)c2ccc(Cl)c(Cl)c2)cc1N1CCNCC1` [Example 90, 3,4-Dichloro-N-(4-methoxy-3-piperazin-1-ylphenyl)benzenesulfonamide] showed a negative logarithm of the Ki (pKi) of more than 8.00.

In turn, `COc1ccc(NS(=O)(=O)c2ccc3c(Cl)cccc3c2)cc1N1CCNCC1` [Example 79, 5-Chloronaphthalene-2-sulfonic acid(4-methoxy-3-piperazin-1-ylphenyl)amide] showed a pKi of more than 8.00.

For the compound `COc1ccc(NS(=O)(=O)c2c(C)sc3ccc(Cl)cc23)cc1N1CCN(C)CC1` [Example 65, 5-Chloro-2-methylbenzo[b]thiophene-3-sulfonic acid [4-methoxy-3-(4-methylpiperazin-1-yl)phenyl] amide], the pKi is more than 8.00.

For `COc1ccc(NS(=O)(=O)c2ccc3c(Cl)cccc3c2)cc1N1CCN(C)CC1` [Example 61, 5-Chloronaphthalene-2-sulfonic acid [4-methoxy-3-(4-methylpiperazin-1-yl)phenyl] amide], the pKi was more than 8.00.

In turn, `COc1ccc(NS(=O)(=O)c2ccc3ccccc3c2)cc1N1CCNCC1` [Example 87, Naphthalene-2-sulfonic acid(4-methoxy-3-piperazin-1-ylphenyl)amide] gave a pKi of more than 8.00.

`COc1ccc(NS(=O)(=O)c2cc(Cl)cc(Cl)c2)cc1N1CCNCC1` [Example 72, 3,5-Dichloro-N-(4-methoxy-3-piperazin-1-ylphenyl)benzenesulfonamide] gave a pKi of more than 8.00.

Take `COc1ccc(NS(=O)(=O)c2cccc(I)c2)cc1N1CCNCC1` [Example 70, 3-Iodo-N-(4-methoxy-3-piperazin-1-ylphenyl)benzenesulfonamide]: the pKi is more than 8.00.

For `COc1ccc(NS(=O)(=O)c2cccc(Br)c2)cc1N1CCN(C)CC1` [Example 11, 3-Bromo-N-[4-methoxy-3-(4-methylpiperazin-1-yl)phenyl]benzenesulfonamide], the pKi was more than 8.00.

The compound `COc1ccc(NS(=O)(=O)c2cc(Cl)cc(Cl)c2)cc1N1CCN(C)CC1` [Example 15, 3,5-Dichloro-N-[4-methoxy-3-(4-methylpiperazin-1-yl)phenyl]benzenesulfonamide] showed a pKi of more than 8.00.

In the case of `COc1ccc(NS(=O)(=O)c2cccc(Br)c2)cc1N1CCNCC1` [Example 77, 3-Bromo-N-(4-methoxy-3-piperazin-1-ylphenyl)benzenesulfonamide], the pKi was more than 8.00.

In the case of `COc1ccc(NS(=O)(=O)c2cccc(Cl)c2)cc1N1CCNCC1` [Example 78, 3-Chloro-N-(4-methoxy-3-piperazin-1-ylphenyl)benzenesulfonamide], the pKi was more than 8.00.

Compound `COc1ccc(NS(=O)(=O)c2c(C)sc3ccc(Cl)cc23)cc1N1CCNCC1` [Example 84, 5-Chloro-2-methylbenzo[b]thiophene-3-sulfonic acid (4-methoxy-3-piperazin-1-ylphenyl) amide] had a pKi of more than 8.00.
